Measured values reported in patent US8067589B2, “Heterocyclic compounds useful in treating diseases and conditions” (Pfizer Inc, priority 2007, dated 2011).

molecular target: human recombinant H-PGDS (Homo sapiens, UniProt O60760); assay: Fluoresecence Intensity h-PGDSTBA Enzyme Assay; conditions: IC50, 5.0 μM PGH2, 2.5 mM L-Glutathione, 10 min preincubation, 4-parameter fit, highest inhibitor concentration typically 1 μM
Sequence (O60760 whole entry): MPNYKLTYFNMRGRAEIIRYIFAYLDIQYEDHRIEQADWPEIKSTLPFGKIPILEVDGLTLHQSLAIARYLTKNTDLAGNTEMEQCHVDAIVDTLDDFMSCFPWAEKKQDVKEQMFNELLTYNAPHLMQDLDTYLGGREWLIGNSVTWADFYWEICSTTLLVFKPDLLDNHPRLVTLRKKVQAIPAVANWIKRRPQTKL

| Structure (SMILES) | IC50 |
| --- | --- |
| COc1cccc(OC)c1CN1CCC(NC(=O)c2cnc(-c3ccccc3)nc2)CC1 [Example 14, N-[1-(2,6-Dimethoxybenzyl)piperidin-4-yl]-2-phenylpyrimidine-5-carboxamide] | 0.483 nM |
| Cc1ccc(F)c(OCC(c2ccccc2)N2CCC(NC(=O)c3cnc(-c4cccc(F)c4)nc3)CC2)c1 (stereo not drawn) [Example 59, N-{1-[2-(2-Fluoro-5-methylphenoxy)-1-phenylethyl]piperidin-4-yl}-2-(3-fluorophenyl)pyrimidine-5-carboxamide] | 8.16 nM |
| CC(C)N1CCC(NC(=O)c2cnc(-c3cccc(F)c3)nc2)C1 (stereo not drawn) [Example 87, 2-(3-Fluorophenyl)-N-(1-isopropylpyrrolidin-3-yl)pyrimidine-5-carboxamide] | 6.57 nM |
| CCCCN1CCC(NC(=O)c2cnc(-c3cccc(F)c3)nc2)CC1 [Example 61, N-(1-Butylpiperidin-4-yl)-2-(3-fluorophenyl)pyrimidine-5-carboxamide] | 0.58 nM |
| N#Cc1ccc(OCC(c2ccccc2)N2CCC(NC(=O)c3cnc(-c4cccc(F)c4)nc3)CC2)cc1F (stereo not drawn) [Example 28, N-{1-[2-(4-Cyano-3-fluorophenoxy)-1-phenylethyl]piperidin-4-yl}-2-(3-fluorophenyl)pyrimidine-5-carboxamide] | 4.45 nM |
| O=C(NC1CCN(Cc2ccccc2F)CC1)c1cnc(-c2cccc(F)c2)nc1 [Example 64, N-[1-(2-Fluorobenzyl)piperidin-4-yl]-2-(3-fluorophenyl)pyrimidine-5-carboxamide] | 0.16 nM |
| CC(C)(C)OC(=O)N1C[C@@H]2[C@H](C1)[C@H]2NC(=O)c1cnc(-c2cccc(F)c2)nc1 [Example 71, tert-Butyl (1R,5S,6s)-6-({[2-(3-fluorophenyl)pyrimidin-5-yl]carbonyl}amino)-3-azabicyclo[3.1.0]hexane-3-carboxylate] | 0.355 nM |
| CCOC(=O)N1CCC(NC(=O)c2cnc(-c3cc(F)ccc3F)nc2)CC1 [Example 74, Ethyl 4-({[2-(2,5-difluorophenyl)pyrimidin-5-yl]carbonyl}amino)piperidine-1-carboxylate] | 3.2 nM |
| CNC(=O)N1CCC(NC(=O)c2cnc(-c3cccc(F)c3)nc2)CC1 [Example 25, 2-(3-Fluorophenyl)-N-{1-[(methylamino)carbonyl]piperidin-4-yl}pyrimidine-5-carboxamide] | 0.373 nM |
| CC(C)(C)C(=O)N1CC(NC(=O)c2cnc(-c3cccc(F)c3)nc2)C1 [Example 106, N-[1-(2,2-Dimethylpropanoyl)azetidin-3-yl]-2-(3-fluorophenyl)pyrimidine-5-carboxamide] | 2.98 nM |
| CCCCOCCCN1CCC(NC(=O)c2cnc(-c3cccc(F)c3)nc2)C1=O (stereo not drawn) [Example 91, N-[1-(3-Butoxypropyl)-2-oxopyrrolidin-3-yl]-2-(3-fluorophenyl)pyrimidine-5-carboxamide] | 2.8 nM |
| O=C(NC1CCN(c2ccc(C(=O)N3CCOCC3)cn2)CC1)c1cnc(-c2cc(F)ccc2F)nc1 [Example 75, 2-(2,5-Difluorophenyl)-N-{1-[5-(morpholin-4-ylcarbonyl)pyridin-2-yl]piperidin-4-yl}pyrimidine-5-carboxamide] | 18.3 nM |
| Cc1ccc(Cl)c(OCC(c2ccccc2)N2CCC(NC(=O)c3cnc(-c4cccc(F)c4)nc3)CC2)c1F (stereo not drawn) [Example 43, N-{1-[2-(6-Chloro-2-fluoro-3-methylphenoxy)-1-phenylethyl]piperidin-4-yl}-2-(3-fluorophenyl)pyrimidine-5-carboxamide] | 35 nM |
| O=C(NC1CCN(Cc2cccc(F)c2)CC1)c1cnc(-c2cccc(F)c2)nc1 [Example 65, N-[1-(3-Fluorobenzyl)piperidin-4-yl]-2-(3-fluorophenyl)pyrimidine-5-carboxamide] | 0.335 nM |
| O=C(NC1CCN(C(COc2ccc(F)c(Cl)c2)c2ccccc2)CC1)c1cnc(-c2cccc(F)c2)nc1 (stereo not drawn) [Example 42, N-{1-[2-(3-Chloro-4-fluorophenoxy)-1-phenylethyl]piperidin-4-yl}-2-(3-fluorophenyl)pyrimidine-5-carboxamide] | 54.8 nM |
